# Patent US6495683B2, “4-oxo-4,7-dihydro-thieno[2,3-b]pyridine-5-carboxamides as antiviral agents” (Pharmacia and Upjohn Company, priority 1999, dated 2002)
# pIC50: −log10 of the molar value. Where a name gives a salt, the structure may show the parent alone. Read-outs that look alike come from different tables or passages of the source.
# Tests used:
# HCMV polymerase = biological target: T1, HCMV polymerase (Human cytomegalovirus, UniProt P08546); assay: biochemical; settings: for IC50: modified SPA assay: compounds diluted in 100% DMSO, 4.5 mM DTT in polymerase buffer, read-out: polymerase IC50 (μM) HCMV
# T1 construct: made in house; host or cells: recombinant baculovirus-infected SF-9 cells
# Description: The HCMV polymerase assay is performed using a scintillation proximity assay (SPA) as described in several references, such as N. D. Cook, et al., Pharmaceutical Manufacturing International, pages 49-53 (1992); K. Takeuchi, Laboratory Practice, September issue (1992); U.S. Pat. No. 4,568,649 (1986); which are incorporated by reference herein. Reactions are performed in 96-well plates. The assay is conducted in 100 μl volume with 5.4 mM HEPE (pH 7.5), 11.7 mM KCl, 4.5 mM MgCl2, 0.36 mg/ml BSA, and 90 nM ^3H-dTTP. Assays are run with and without CHAPS, (3-[(3-cholamidopropyl)-dimethylammonio]-1-propane-sulfonate) at a final concentration of 2 mM. HCMV polymerase is diluted in enzyme dilution buffer containing 50% glycerol, 250 mM NaCl, 10 mM HEPES (pH 7.5), 100 μg/ml BSA, and 0.01% sodium azide. The HCMV polymerase, which is expressed in recombinant baculovirus-infected SF-9 cells and purified according to literature procedures, is added at 10% (or 10 μl) of the final reaction volume, i.e., 100 μl. Compounds are diluted in 50% DMSO and 10 μl are added to each well. Control wells contain an equivalent concentration of DMSO. Unless noted otherwise, reactions are initiated via the addition of 6 nM biotinylated poly(dA)-oligo(dT) template/primer to reaction mixtures containing the enzyme, substrate, and compounds of interest. Plates are incubated in a 25 C or 37 C H2O bath and terminated via the addition of 40 μl/reaction of 0.5 M EDTA (pH 8) per well. Reactions are terminated within the time-frame during which substrate incorporation is linear and varied depending upon the enzyme and conditions used, i.e., 30 min. for HCMV polymerase. Ten μl of streptavidin-SPA beads (20 mg/ml in PBS/10% glycerol) are added following termination of the reaction. Plates are incubated 10 min. at 37 ° C., then equilibrated to room temperature, and counted on a Packard Topcount. Linear regressions are performed and IC50's are calculated using computer software.
# A modified version of the above HCMV polymerase assay is performed as described above, but with the following changes: Compounds are diluted in 100% DMSO until final dilution into assay buffer. In the previous assay, compounds are diluted in 50% DMSO. 4.5 mM dithiothreotol (DTT) is added to the polymerase buffer.
# T1 sequence (P08546 whole entry): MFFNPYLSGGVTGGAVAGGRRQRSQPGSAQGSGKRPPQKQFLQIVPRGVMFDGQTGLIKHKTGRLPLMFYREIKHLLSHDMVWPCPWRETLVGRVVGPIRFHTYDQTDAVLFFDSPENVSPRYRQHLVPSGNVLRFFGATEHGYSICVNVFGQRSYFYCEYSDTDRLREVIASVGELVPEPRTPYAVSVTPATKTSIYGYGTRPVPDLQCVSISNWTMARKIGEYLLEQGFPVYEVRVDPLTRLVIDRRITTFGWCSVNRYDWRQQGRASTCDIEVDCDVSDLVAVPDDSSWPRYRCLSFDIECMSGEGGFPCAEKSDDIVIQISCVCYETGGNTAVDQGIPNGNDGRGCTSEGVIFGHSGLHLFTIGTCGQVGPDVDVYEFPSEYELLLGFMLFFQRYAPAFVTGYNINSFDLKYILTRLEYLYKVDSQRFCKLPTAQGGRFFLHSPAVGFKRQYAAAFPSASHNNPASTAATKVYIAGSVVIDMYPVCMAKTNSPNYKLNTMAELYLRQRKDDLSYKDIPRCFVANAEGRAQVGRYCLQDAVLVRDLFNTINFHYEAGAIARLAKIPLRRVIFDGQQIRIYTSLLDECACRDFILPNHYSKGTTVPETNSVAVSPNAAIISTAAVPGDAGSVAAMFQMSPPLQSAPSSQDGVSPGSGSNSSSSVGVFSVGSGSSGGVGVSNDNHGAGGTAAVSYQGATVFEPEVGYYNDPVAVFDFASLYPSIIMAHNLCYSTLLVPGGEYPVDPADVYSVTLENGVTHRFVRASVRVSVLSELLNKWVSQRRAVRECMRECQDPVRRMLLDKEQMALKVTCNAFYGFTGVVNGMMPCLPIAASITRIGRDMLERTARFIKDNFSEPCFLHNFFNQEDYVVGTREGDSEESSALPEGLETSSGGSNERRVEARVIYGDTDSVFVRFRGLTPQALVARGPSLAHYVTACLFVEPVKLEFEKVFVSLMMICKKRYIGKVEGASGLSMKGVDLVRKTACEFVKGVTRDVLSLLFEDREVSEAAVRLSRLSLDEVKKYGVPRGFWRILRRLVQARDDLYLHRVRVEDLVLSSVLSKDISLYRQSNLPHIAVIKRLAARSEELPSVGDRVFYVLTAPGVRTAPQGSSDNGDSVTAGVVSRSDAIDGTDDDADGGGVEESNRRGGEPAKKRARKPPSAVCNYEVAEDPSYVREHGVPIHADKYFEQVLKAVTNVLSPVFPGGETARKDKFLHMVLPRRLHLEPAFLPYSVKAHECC
SMILES,melting point,IC50 (HCMV polymerase) [µM],pIC50 (HCMV polymerase)
"CCn1cc(C(=O)NCc2ccc(Cl)cc2)c(=O)c2ccsc21 [Example 12, N-(4-Chlorobenzyl)-7-ethyl-4-oxo-4,7-dihydrothieno[2,3-b]pyridine-5-carboxamide]",183 to 184 °C,11,–
"CN(Cc1cc2c(=O)c(C(=O)NCc3ccc(Cl)cc3)cn(C)c2s1)CC(O)c1ccccc1 (centres unmarked) [Example 40, N-(4-Chlorobenzyl)-2-(((2-hydroxy-2-phenylethyl)(methyl)-amino)methyl)-7-methyl-4-oxo-4,7-dihydrothieno[2,3-b]pyridine-5-carboxamide]",184 to 187 °C,< 0.31,–
"CC(C)n1cc(C(=O)NCc2ccc(Cl)cc2)c(=O)c2cc(I)sc21 [Example 26, N-(4-Chlorobenzyl)-2-iodo-7-isopropyl-4-oxo-7-3dihydrothiedion[2,3-b]pyridine-5-carboxamide]",173 to 180 °C,14.2,–
"CCCn1cc(C(=O)NCc2ccc(Cl)cc2)c(=O)c2cc(CN3CCOCC3)sc21 [Example 43, N-(4-Chlorobenzyl)-2-(4-morpholinylmethyl)-4-oxo-7-propyl-4,7dihydrothieno[2,3-b]pyridine-5-carboxamide]",174 to 176 °C,1.9,–
"COC(=O)c1cc2c(O)c(C(=O)NCc3ccc(Cl)cc3)cnc2s1 [Example 33, Methyl 5-{[(4-Chlorobenzyl)amino]carbonyl}-4-hydroxythieno[2,3-b]pyridine-2-carboxylate]",238 to 240 °C,22.4,–
"CC(C)n1cc(C(=O)NCc2ccc(Cl)cc2)c(=O)c2cc(CCCO)sc21 [Example 28, N-(4-Chlorobenzyl)-2-(3-hydroxypropyl)-7-isopropyl-4-oxo4,7-dihydrothieno[2,3-b]pyridine-5-carboxamide]",84 to 92 °C,2.4,–
"O=C(NCc1ccc(Cl)cc1)c1cnc2sc(CN3CCOCC3)cc2c1O [Example 41, N-(4-Chlorobenzyl)-4-hydroxy-2-(4-morpholinylmethyl)-thieno[2,3-b]pyridine-5-carboxamide]",193 to 195 °C,–,5.47
"CC(C)n1cc(C(=O)NCc2ccc(Cl)cc2)c(=O)c2cc(CN3CCOCC3)sc21 [Example 44, N-(4-Chlorobenzyl)-7-isopropyl-2-(4-morpholinylmethyl)-4-oxo-4,7-dihydrothieno[2,3-b]pyridine-5-carboxamide]",191 to 195 °C,4.7,–
"COC(=O)C(CC#Cc1cc2c(O)c(C(=O)NCc3ccc(Cl)cc3)cnc2s1)C(=O)OC [Example 10, Dimethyl 2-[3-(5-{[(4-Chlorobenzyl)amino]carbonyl}-4-hydroxythieno[2,3-b]pyridin-2-yl)-2-propynyl]malonate]",197 to 198 °C,34.3,–
"O=C(NCc1ccc(Cl)cc1)c1cnc2sccc2c1O [Example 1, N-(4-Chlorobenzyl)-4-hydroxythieno[2,3-b]pyridine-5-carboxamide]",238 to 240 °C,28.9,–
"O=C(NCc1ccc(Cl)cc1)c1cnc2sc(C#CCCO)cc2c1O [Example 7, N-(4-Chlorobenzyl)-4-hydroxy-2-(4-hydroxy-1-butynyl)thieno[2,3-b]pyridine-5-carboxamide]",242 to 246 °C,8,–
"O=C(NCc1ccc(Cl)cc1)c1cnc2sc(C(=O)N3CCOCC3)cc2c1O [Example 47, N-(4-Chlorobenzyl)-4-hydroxy-2-(4-morpholinyl-carbonyl)-thieno[2,3-b]pyridine-5-carboxamide]",217 to 219 °C,> 20,–
"CCN(CC)CCn1cc(C(=O)NCc2ccc(Cl)cc2)c(=O)c2cc(C#CCO)sc21 (as salt: hydrochloride) [Example 18, N-(4-Chlorobenzyl)-7-[2-(diethylamino)ethyl]-2-(3hydroxy-1-propynyl)4-oxo4,7-dihydrothieno[2,3-b]pyridine-5-carboxamide hydrochloride]",212 to 214 °C (dec.),–,–
"O=C(NCc1ccc(Cl)cc1)c1cn(Cc2cccc(F)c2)c2sc(CN3CCOCC3)cc2c1=O [Example 50, N-(4-Chlorobenzyl)-7-(3-fluorobenzyl)-2-(4-morpholinyl-methyl)-4-oxof47-dihydrothieno[2,3-b]pyridine-5-carboxamide]",214 to 215 °C,3.8,–
"Cn1cc(C(=O)NCc2ccc(Cl)cc2)c(=O)c2cc(CO)sc21 [Example 35, N-(4-Chlorobenzyl)-2-(hydroxymethyl)-7-methyl-4-oxo-4,7-dihydrothieno[2,3-b]pyridine-5-carboxamide]",222 to 225 °C,18.5,–
"CCn1cc(C(=O)NCc2ccc(Cl)cc2)c(=O)c2cc(C#CCOC(=O)CCC(=O)O)sc21 [Example 29, 4-{[3-(5-{[(4-Chlorobenzyl)amino]carbonyl}-7-ethyl-4-oxo-4,7-dihydrothieno[2,3-b]pyridin-2-yl)-2-propynyl]oxy}-4-oxobutanoic Acid]",180 to 182 °C,6.5,–
"CCn1cc(C(=O)NCc2ccc(Cl)cc2)c(=O)c2cc(Br)sc21 [Example 11, 2-Bromo-N-(4-chlorobenzyl)-7-ethyl-4-oxo-4,7-dihydrothieno[2,3-b]pyridine-5-carboxamide]",196 to 197 °C,18.8,–
"CCn1cc(C(=O)NCc2ccc(Cl)cc2)c(=O)c2cc(CCCO)sc21 [Example 16, N-(4-Chlorobenzyl)-7-ethyl-2-(3-hydroxypropyl)-4-oxo-4,7-dihydrothieno [2,3-b] pyfidine-5-carboxamide]",144 to 146 °C,0.67,–
"CCn1cc(C(=O)NCc2ccc(Cl)cc2)c(=O)c2cc(C#CCOC(=O)c3cccc(CN4CCOCC4)c3)sc21 [Example 32, 3-(5-{[(4-Chlorobenzyl)amino]carbonyl}-7-ethyl-4-oxo-4,7-dihydrothieno[2,3-b]pyridin-2-yl)-2-propynyl 3-(4-Morpholinylmethyl)benzoate]",147 to 150 °C,> 50,–
"Cn1cc(C(=O)NCc2ccc(Cl)cc2)c(=O)c2cc(I)sc21 [Example 23, N-(4-Chlorobenzyl)-2-iodo-7-methyl-4-oxo-4,7-dihydrothieno[2,3-b]pyridine-5-carboxamide]",236 to 237 °C,2.9,–
"O=C(NCc1ccc(Cl)cc1)c1cn(Cc2cccnc2)c2sc(CN3CCOCC3)cc2c1=O [Example 54, N-(4-Chlorobenzyl)-2-(4-morpholinylmethyl)-4-oxo-7-(3-pyridinylmethyl)-4,7-dihydrothieno[2,3-b]pyridine-5-carboxamide]",214 to 215 °C,3.2,–
"Cn1cc(C(=O)NCc2ccc(Br)cc2)c(=O)c2cc(CN3CCOCC3)sc21 [Example 46, N-(4-Bromobenzyl)-7-methyl-2-(4-morpholinylmethyl)-4-oxo-4,7-dihydrothieno[2,3-b]pyridine-5-carboxamide]",245 to 246 °C,3.8,–
"CCn1cc(C(=O)NCc2ccc(Cl)cc2)c(=O)c2cc(I)sc21 [Example 13, N-(4-Chlorobenzyl)-7-ethyl-2-iodo-4-oxo-4,7-dihydrothieno[2,3-b]pyridine-5-carboxamide]",214 to 218 °C,9,–
"O=C(NCc1ccc(Cl)cc1)c1cnc2sc(I)cc2c1O [Example 2, N-(4-Chlorobenzyl)-4-hydroxy-2-iodothieno[2,3-b]pyridine-5-carboxamide]",231 to 232 °C (dec.),6.3,–
"CCn1cc(C(=O)NCc2ccc(Cl)cc2)c(=O)c2cc(C#CCOC(=O)C(N)C(C)C)sc21 (centres unmarked) [Example 31, 3-(5-{[(4-Chlorobenzyl)amino]carbonyl}-7-ethyl-4-oxo-4,7-dihydrothieno[2,3-b]pyridin-2-yl)-2-propynyl 2-Amino-3-methylbutanoate Hydrochloride]",–,15.4,–
"CCn1cc(C(=O)NCc2ccc(Cl)cc2)c(=O)c2cc(C#CCOC(=O)C(N)C(C)C)sc21 (centres unmarked) (as salt: hydrochloride) [Example 31, 3-(5-{[(4-Chlorobenzyl)amino]carbonyl}-7-ethyl-4-oxo-4,7-dihydrothieno[2,3-b]pyridin-2-yl)-2-propynyl 2-Amino-3-methylbutanoate Hydrochloride]",171 to 172 °C,–,–
"N#Cc1cc2c(O)c(C(=O)NCc3ccc(Cl)cc3)cnc2s1 [Example 9, N-(4-Chlorobenzyl)-2-cyano-4-hydroxythieno[2,3-b]pyridine-5-carboxamide]",–,12.5,–
